Values joined by “and” are separate entries in the source; they are usually repeats but may differ in a detail not shown here. Equal values may be shown once.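 Five concentrations, 48 hours, 96-well plates. GI50 = concentration required for 50% inhibition of growth.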 Active and inactive are the calls of the source. Cut-off read from the data, not from the text of the source: active = GI50 up to about 1.1 µM and inactive = higher. Residues, ends and D or L forms follow the SMILES beside them. *: point of attachment. Boc = CC(C)(C)OC(=O)*; OBn = c1ccc(CO*)cc1
Tests used:
Assay in all cases: DTP human tumour cell line panel, 48 h
SK-MEL-2 = test system: SK-MEL-2
SK-MEL-28 = test system: SK-MEL-28
NCI-H23 = test system: NCI-H23
CAKI-1 = test system: CAKI-1
HOP-62 = test system: HOP-62
IGROV-1 = test system: IGROV-1
SF-268 = test system: SF-268
PC-3 = test system: PC-3
SR = test system: SR
HCC 2998 = test system: HCC 2998
SK-OV-3 = test system: SK-OV-3
OVCAR-3 = test system: OVCAR-3
SN12C = test system: SN12C
NCI/ADR-RES = test system: NCI/ADR-RES
HCT-116 = test system: HCT-116
SK-MEL-5 = test system: SK-MEL-5
COLO 205 = test system: COLO 205
CCRF-CEM = test system: CCRF-CEM
SF-539 = test system: SF-539
BT-549 = test system: BT-549

| Compound | GI50 (SK-MEL-2) | GI50 (SK-MEL-28) | GI50 (NCI-H23) | GI50 (CAKI-1) | GI50 (HOP-62) | GI50 (IGROV-1) | GI50 (SF-268) | GI50 (PC-3) | GI50 (SR) | GI50 (HCC 2998) | GI50 (SK-OV-3) | GI50 (OVCAR-3) | GI50 (SN12C) | GI50 (NCI/ADR-RES) | GI50 (HCT-116) | GI50 (SK-MEL-5) | GI50 (COLO 205) | GI50 (CCRF-CEM) | GI50 (SF-539) | GI50 (BT-549) |
| --- | --- | --- | --- | --- | --- | --- | --- | --- | --- | --- | --- | --- | --- | --- | --- | --- | --- | --- | --- | --- |
| COC(=O)C1OC(O[C@H]2CC[C@]3(C)[C@H]4CC=C5[C@@H]6CC(C)(C)CC[C@]6(C(=O)OC6OCC(O)C(O)C6OC6OC(C)C(OC7OCC(O)C(O)C7O)C(O)C6O)[C@H](O)C[C@@]5(C)[C@]4(C)CC[C@H]3C2(C)C)C(O)C(O)C1O (some centres not stated) | 2.7 µM (inactive) and 2.9 µM (inactive) | 1.87 µM (inactive) and 2.13 µM (inactive) | 2.14 µM (inactive) and 2.24 µM (inactive) | 2.61 µM (inactive) and 4 µM (inactive) | 8.85 µM (inactive) and 6.27 µM (inactive) | 15.8 µM (inactive) and 11.7 µM (inactive) | 9.29 µM (inactive) and 9.2 µM (inactive) | 4.45 µM (inactive) and 4.68 µM (inactive) | 3.14 µM (inactive) and 3.86 µM (inactive) | 2.82 µM (inactive) and 1.82 µM (inactive) | 11.4 µM (inactive) and 13.4 µM (inactive) | 11.8 µM (inactive) and 14.8 µM (inactive) | 1.84 µM (inactive) and 1.85 µM (inactive) | 4.08 µM (inactive) and 3.24 µM (inactive) | 4.08 µM (inactive) and 4.86 µM (inactive) | 6.61 µM (inactive) and 13.1 µM (inactive) | 1.66 µM (inactive) and 1.83 µM (inactive) | – | – | – |
| CCN(CC)C(=S)N/N=C(/C)c1cccc(/C(C)=N\NC(=S)N(CC)CC)n1 | 4.68 µM (inactive) | 1.21 µM (inactive) | 3.44 µM (inactive) | 1.29 µM (inactive) | 1.41 µM (inactive) | 1.91 µM (inactive) | 0.334 µM (active) | 3.15 µM (inactive) | 0.32 µM (active) | 3.9 µM (inactive) | 1.96 µM (inactive) | 1.35 µM (inactive) | 2.79 µM (inactive) | 2 µM (inactive) | 2.8 µM (inactive) | 2.13 µM (inactive) | 1.58 µM (inactive) | 0.389 µM (active) | 1.37 µM (inactive) | – |
| COc1ccc(N[S+]([O-])c2ccc(OC)cc2)cc1 (configuration not stated) | 16.9 µM (inactive) | > 100 µM (inactive) | > 100 µM (inactive) | 52.7 µM (inactive) | 61.8 µM (inactive) | 5.53 µM (inactive) | 6.75 µM (inactive) | – | 26.9 µM (inactive) | 41.3 µM (inactive) | – | > 100 µM (inactive) | > 100 µM (inactive) | 56.6 µM (inactive) | 41.2 µM (inactive) | 18.8 µM (inactive) | 72.1 µM (inactive) | 45.5 µM (inactive) | 14.6 µM (inactive) | 14.8 µM (inactive) |
| COc1c2occc2cc2ccc(=O)oc12 [METHOXSALEN] | > 100 µM (inactive) | > 100 µM (inactive) | > 100 µM (inactive) | > 100 µM (inactive) | > 100 µM (inactive) | – | – | > 100 µM (inactive) | 90.6 µM (inactive) | > 100 µM (inactive) | > 100 µM (inactive) | > 100 µM (inactive) | > 100 µM (inactive) | – | > 100 µM (inactive) | > 100 µM (inactive) | > 100 µM (inactive) | > 100 µM (inactive) | > 100 µM (inactive) | > 100 µM (inactive) |
| O=c1ccc(-c2ccc(-n3ccnc3)cc2)nn1CCO | – | > 100 µM (inactive) | > 100 µM (inactive) | > 100 µM (inactive) | > 100 µM (inactive) | > 100 µM (inactive) | > 100 µM (inactive) | > 100 µM (inactive) | > 100 µM (inactive) | > 100 µM (inactive) | > 100 µM (inactive) | > 100 µM (inactive) | > 100 µM (inactive) | – | > 100 µM (inactive) | > 100 µM (inactive) | > 100 µM (inactive) | > 100 µM (inactive) | > 100 µM (inactive) | > 100 µM (inactive) |
| COc1ccc([N+](=O)[O-])c2c(NCC(O)CO)ccnc12 (configuration not stated) | 23.1 µM (inactive) | > 100 µM (inactive) | 18 µM (inactive) | 52.6 µM (inactive) | 38.6 µM (inactive) | 27.3 µM (inactive) | 35.9 µM (inactive) | 49.8 µM (inactive) | 34.4 µM (inactive) | 32.2 µM (inactive) | > 100 µM (inactive) | 24.2 µM (inactive) | 77.8 µM (inactive) | – | 28.9 µM (inactive) | 23 µM (inactive) | 22.5 µM (inactive) | 87.1 µM (inactive) | 28.8 µM (inactive) | 20 µM (inactive) |
| CC[C@H](CCCC[C@H]1CC[C@@H]2CC(=O)C[C@H]12)OC | > 100 µM (inactive) | – | 35.5 µM (inactive) | > 100 µM (inactive) | > 100 µM (inactive) | > 100 µM (inactive) | – | – | 32.9 µM (inactive) | > 100 µM (inactive) | > 100 µM (inactive) | 85.3 µM (inactive) | – | 47.4 µM (inactive) | 52.2 µM (inactive) | 31.4 µM (inactive) | > 100 µM (inactive) | 60.7 µM (inactive) | > 100 µM (inactive) | 36.9 µM (inactive) |
| O=C(NCCCN(CCCCN(CCCNC(=O)C(F)(F)F)CCCc1ccccc1)CCCc1ccccc1)C(F)(F)F | – | 1.64 µM (inactive) | 12.7 µM (inactive) | 1.94 µM (inactive) | – | 1.83 µM (inactive) | 1.63 µM (inactive) | – | – | 1.78 µM (inactive) | 2.49 µM (inactive) | – | 2.08 µM (inactive) | 3.45 µM (inactive) | 2.47 µM (inactive) | 1.69 µM (inactive) | 1.56 µM (inactive) | 4.63 µM (inactive) | 1.57 µM (inactive) | 2.68 µM (inactive) |
| CC(C)C(NC(=O)CNC(=O)C1CCCN1C(=O)C(NC(=O)OC(C)(C)C)C(C)C)C(=O)NCC(=O)OCc1ccccc1 (configuration not stated) (Boc-VPGVG-OBn; configuration not given here) | > 100 µM (inactive) | > 100 µM (inactive) | > 100 µM (inactive) | > 100 µM (inactive) | > 100 µM (inactive) | > 100 µM (inactive) and 94.6 µM (inactive) | > 100 µM (inactive) | > 100 µM (inactive) | > 100 µM (inactive) | > 100 µM (inactive) | > 100 µM (inactive) | > 100 µM (inactive) | > 100 µM (inactive) | > 100 µM (inactive) | > 100 µM (inactive) | 24.5 µM (inactive) | > 100 µM (inactive) | > 100 µM (inactive) | > 100 µM (inactive) | – |
| CC1=C(O)C(=O)C2=C(C1=O)[C@@H]([C@@H](C)C/C=C/C(C)(C)O)CC[C@@H]2C | 39.5 µM (inactive) | – | 49.2 µM (inactive) | 37.9 µM (inactive) | > 100 µM (inactive) | 69.5 µM (inactive) | 30.7 µM (inactive) | 51.1 µM (inactive) | 35.3 µM (inactive) | – | > 100 µM (inactive) | 25.5 µM (inactive) | 87.1 µM (inactive) | 77.1 µM (inactive) | 38.1 µM (inactive) | 35.2 µM (inactive) | > 100 µM (inactive) | 28.8 µM (inactive) | > 100 µM (inactive) | – |
| CNc1ccc2c(c1)Cc1ccccc1-2 | 35.4 µM (inactive) | 44.5 µM (inactive) | 75.2 µM (inactive) | 30.6 µM (inactive) | 57.4 µM (inactive) | 34.5 µM (inactive) | 44 µM (inactive) | 32.7 µM (inactive) | 27 µM (inactive) | 30.6 µM (inactive) | – | 26.8 µM (inactive) | 43.8 µM (inactive) | > 100 µM (inactive) | 56.2 µM (inactive) | 26.8 µM (inactive) | 38.7 µM (inactive) | 59.2 µM (inactive) | 32.4 µM (inactive) | – |
| C=C(CCOC)CCC1CCCCC(=C)[C@H]1O (some centres not stated) | > 100 µM (inactive) | > 100 µM (inactive) | > 100 µM (inactive) | > 100 µM (inactive) | > 100 µM (inactive) | > 100 µM (inactive) | > 100 µM (inactive) | > 100 µM (inactive) | > 100 µM (inactive) | – | > 100 µM (inactive) | > 100 µM (inactive) | > 100 µM (inactive) | > 100 µM (inactive) | > 100 µM (inactive) | > 100 µM (inactive) | > 100 µM (inactive) | > 100 µM (inactive) | – | – |
| CC1(C)N=C(N)N=C(N)N1c1ccc(OCC(=O)Nc2cccc(S(=O)(=O)F)c2)c(Cl)c1 | > 100 µM (inactive) | > 70 µM (inactive) | 4.95 µM (inactive) | 35.8 µM (inactive) | 31 µM (inactive) | 7 µM (inactive) | 4.78 µM (inactive) | 1.54 µM (inactive) | 2.85 µM (inactive) | 19.1 µM (inactive) | > 81.1 µM (inactive) | 18.5 µM (inactive) | 8 µM (inactive) | 59.6 µM (inactive) | 12.6 µM (inactive) | 3.56 µM (inactive) | 15.9 µM (inactive) | 5.37 µM (inactive) | 13.2 µM (inactive) | – |
| CN1CCN(c2ccc3[nH]c(-c4ccc5[nH]c(-c6ccc(N(C)CCCl)cc6)nc5c4)nc3c2)CC1 | 0.22 µM (active) | 0.32 µM (active) | 0.25 µM (active) | 4.41 µM (inactive) | 0.156 µM (active) | 0.0382 µM (active) | 0.0622 µM (active) | 0.136 µM (active) | 0.0301 µM (active) | 0.461 µM (active) | 0.196 µM (active) | – | 0.0461 µM (active) | 40.6 µM (inactive) | 0.239 µM (active) | 0.18 µM (active) | 0.17 µM (active) | < 0.01 µM (active) | 0.109 µM (active) | – |

From ChEMBL document CHEMBL1201862, “PubChem BioAssay data set” (2004)
